{"source": "DBAASP", "assay_in_all_cases": "≥ marks a high value that may be exact or a test limit, other limits are often not marked, values filed in µg/mL are converted to µM", "key": {"[1]": {"system": "Acinetobacter baumannii MTCC 9829"}, "[2]": {"system": "Alcaligenes faecalis MTCC 1937"}, "[3]": {"system": "Alkalihalobacillus alcalophilus MTCC 860"}, "[4]": {"system": "Bordetella bronchiseptica MTCC 6837"}, "[5]": {"system": "Citrobacter freundii MTCC 1658"}, "[6]": {"system": "Citrobacter koseri MTCC 1657"}, "[7]": {"system": "Corynebacterium glutamicum MTCC 2679"}, "[8]": {"system": "Enterococcus faecalis MTCC 439"}, "[9]": {"system": "Escherichia coli K12 MG1655"}, "[10]": {"system": "Haemophilus influenzae MTCC 621"}, "[11]": {"system": "Klebsiella aerogenes MTCC 111"}, "[12]": {"system": "Klebsiella oxytoca MTCC 2275"}, "[13]": {"system": "Klebsiella pneumoniae MTCC 7407"}, "[14]": {"system": "Pluralibacter gergoviae MTCC 3826"}, "[15]": {"system": "Proteus mirabilis MTCC 3158"}, "[16]": {"system": "Proteus vulgaris MTCC 1771"}, "[17]": {"system": "Pseudomonas aeruginosa MTCC 3542"}, "[18]": {"system": "Salmonella enterica MTCC 9844"}, "[19]": {"system": "Salmonella enterica subsp. enterica serovar Typhimurium ATCC 14028"}, "[20]": {"system": "Shigella boydii MTCC 11947"}, "[21]": {"system": "Shigella flexneri MTCC 1457"}, "[22]": {"system": "Staphylococcus aureus MTCC 3160"}, "[23]": {"system": "Staphylococcus haemolyticus MTCC 3383"}, "[24]": {"system": "Stenotrophomonas maltophilia MTCC 1890"}, "[25]": {"system": "Vibrio cholerae MTCC 3904"}, "[26]": {"system": "Bacillus subtilis MTCC 14416"}, "[27]": {"system": "Enterococcus faecalis ATCC 29212"}, "[28]": {"system": "Escherichia coli MG1655"}, "[29]": {"system": "Pseudomonas aeruginosa ATCC 27853"}, "[30]": {"system": "Staphylococcus aureus ATCC 43300"}, "[31]": {"system": "Staphylococcus aureus MTCC 9542"}, "[32]": {"system": "Vibrio cholerae"}}}
{"smiles": "CC[C@H](C)[C@H](NC(=O)[C@H](C)NC(=O)[C@@H]1CCCN1C(=O)[C@@H]1CCCN1C(=O)[C@H](CC(C)C)NC(=O)[C@H](Cc1cnc[nH]1)NC(=O)[C@H](CCCCN)NC(=O)[C@H](C)NC(=O)[C@@H](NC(=O)CNC(=O)[C@H](CCCCN)NC(=O)[C@H](C)NC(=O)[C@@H](NC(=O)[C@@H](N)CCC(=O)O)[C@@H](C)O)C(C)C)C(=O)N[C@@H](C)C(=O)O", "note": "[ETAKGVAKHLPPAIA]", "values": [{"measurement": "MIC", "setting": "[1]", "value": "≥ 85.2", "unit": "µM"}, {"measurement": "MIC", "setting": "[2]", "value": "≥ 85.2", "unit": "µM"}, {"measurement": "MIC", "setting": "[3]", "value": "≥ 85.2", "unit": "µM"}, {"measurement": "MIC", "setting": "[4]", "value": "≥ 85.2", "unit": "µM"}, {"measurement": "MIC", "setting": "[5]", "value": "≥ 85.2", "unit": "µM"}, {"measurement": "MIC", "setting": "[6]", "value": "≥ 85.2", "unit": "µM"}, {"measurement": "MIC", "setting": "[7]", "value": "≥ 85.2", "unit": "µM"}, {"measurement": "MIC", "setting": "[8]", "value": "≥ 85.2", "unit": "µM"}, {"measurement": "MIC", "setting": "[9]", "value": "≥ 85.2", "unit": "µM"}, {"measurement": "MIC", "setting": "[10]", "value": "≥ 85.2", "unit": "µM"}, {"measurement": "MIC", "setting": "[11]", "value": "≥ 85.2", "unit": "µM"}, {"measurement": "MIC", "setting": "[12]", "value": "≥ 85.2", "unit": "µM"}, {"measurement": "MIC", "setting": "[13]", "value": "≥ 85.2", "unit": "µM"}, {"measurement": "MIC", "setting": "[14]", "value": "≥ 85.2", "unit": "µM"}, {"measurement": "MIC", "setting": "[15]", "value": "≥ 85.2", "unit": "µM"}, {"measurement": "MIC", "setting": "[16]", "value": "≥ 85.2", "unit": "µM"}, {"measurement": "MIC", "setting": "[17]", "value": "≥ 85.2", "unit": "µM"}, {"measurement": "MIC", "setting": "[18]", "value": "≥ 85.2", "unit": "µM"}, {"measurement": "MIC", "setting": "[19]", "value": "> 85.2", "unit": "µM"}, {"measurement": "MIC", "setting": "[20]", "value": "≥ 85.2", "unit": "µM"}, {"measurement": "MIC", "setting": "[21]", "value": "≥ 85.2", "unit": "µM"}, {"measurement": "MIC", "setting": "[22]", "value": "≥ 85.2", "unit": "µM"}, {"measurement": "MIC", "setting": "[23]", "value": "≥ 85.2", "unit": "µM"}, {"measurement": "MIC", "setting": "[24]", "value": "≥ 85.2", "unit": "µM"}, {"measurement": "MIC", "setting": "[25]", "value": "≥ 85.2", "unit": "µM"}]}
{"smiles": "CC[C@H](C)[C@H](N)C(=O)N[C@@H](C)C(=O)NCC(=O)N[C@@H](CC(C)C)C(=O)N[C@@H](C)C(=O)N[C@@H](C)C(=O)N[C@@H](CC(N)=O)C(=O)N[C@@H](Cc1ccccc1)C(=O)N[C@@H](CC(C)C)C(=O)N1CCC[C@H]1C(=O)N[C@@H](CCC(N)=O)C(=O)N[C@H](C(=O)N[C@@H](CC(C)C)C(=O)N[C@@H](CS)C(=O)N[C@@H](CCCCN)C(=O)N[C@H](C(=O)N[C@@H](C)C(=O)N[C@@H](CCCN=C(N)N)C(=O)N[C@@H](CCCCN)C(N)=O)[C@@H](C)CC)[C@@H](C)CC", "note": "[IAGLAANFLPQILCKIARK]", "values": [{"measurement": "MIC", "setting": "[26]", "value": 24.5, "unit": "µM"}, {"measurement": "MIC", "setting": "[27]", "value": 24.5, "unit": "µM"}, {"measurement": "MIC", "setting": "[28]", "value": 12.3, "unit": "µM"}, {"measurement": "MIC", "setting": "[29]", "value": "> 49", "unit": "µM"}, {"measurement": "MIC", "setting": "[30]", "value": 24.5, "unit": "µM"}, {"measurement": "MIC", "setting": "[31]", "value": 24.5, "unit": "µM"}, {"measurement": "MIC", "setting": "[32]", "value": 24.5, "unit": "µM"}]}
